Data on one compound can be found in US20120129811A1, “TRICYCLIC INHIBITORS OF PRO-MATRIX METALLOPROTEINASE ACTIVATION” (priority 2010, published 2012).

The assay deals with rats with SCW-induced arthritis. The assay can be described thus: Efficacy in rats with SCW-induced arthritis (ankle thickness, clinical scores). As to conditions: for Ankle thickness, Day 18 / Clinical Scores (0-8), Day 18: Day 18 (start of treatment); for Ankle thickness, Day 18 / Ankle thickness, Day 26 / Clinical Scores (0-8), Day 18 / Clinical Scores (0-8), Day 26: mean n=5; for % Inh (disease associated increase in ankle thickness): Day 26. The format is in vivo, rat. An excerpt: A polyarthritis can be induced in female Lewis rats following i.p. administration of streptococcal cell wall (SCW) proteoglycan-polysaccharides (PG-PS) (J Exp Med 1977; 146:1585-1602). The model has an acute phase (days 3-7) that is complement and neutrophil-dependent and that resolves. A chronic erosive phase begins at about day ten and is dependent on the development of specific T cell immunity to the PG-GS, which resists digestion and remains present in synovial macrophages for months. Like rheumatoid arthritis, SCW-induced arthritis is reduced by TNF inhibitors, and the dependence of SCW-induced arthritis on macrophages (Rheumatology; 2001; 40:978-987) and the strong association of rheumatoid arthritis severity with synovial-tissue macrophage counts (Ann Rheum Dis; 2005; 64:834-838) makes SCW-arthritis an attractive model for testing potential therapeutic agents. SCW PG-PS 10S (Beckton Dickinson Cat#210866) suspended in saline was vortexed for 30 seconds and sonicated for 3 min with a probe type sonicator prior to injection. Female Lewis (LEW/N) rats, 5-6 weeks of age (80-100 g) were injected (i.p.) with SCW PG-PS (15 μg of rhamnose/gram BW) in the lower left quadrant of the abdomen using a 1 mL syringe fitted with a 23-gauge needle. Control (disease-free) rats were treated in a similar manner with sterile saline. Control rats were sacrificed on day 5 and groups of SCW-injected rats were sacrificed on day 5 when acute inflammation was maximal or on day 18 when chronic inflammation was established.
To induce arthritis, Female Lewis (LEW/N) rats, 5-6 weeks of age (80-100 g) were injected (i.p.) with SCW PG-PS as described above. Eighteen days later, arthritis was well established. Calipers were used to measure the width (anterior to posterior surface) of the left and right hind ankles of each rat. Each ankle was measured 3 times and averaged, and treatment groups were randomized based on ankle thickness (Table 6). Commencing on day 18, randomized groups of arthritic rats (n=5 rats/group) received vehicle or 5, 20, or 50 mg/kg Compound-α BID by oral gavage. Vehicle consisted of an aqueous mixture containing 2% (v:v) N-methylpyrrolidone, 5% (v:v) glycerine, and 20% (w:v) captisol. Treatment continued daily through the morning of day 26.
Hind paw inflammation clinical scores were assigned based on swelling and erythema.

Where [1] appears, read: 5 mg/kg BID oral gavage Day 18-26.
The mark [2] stands for this setting: 20 mg/kg BID oral gavage Day 18-26.
The mark [3] stands for this setting: 50 mg/kg BID oral gavage Day 18-26.

As to `Cc1nc(C)c(-c2csc(Nc3cc(S(N)(=O)=O)ccc3OC(C)C)n2)s1` [Compound α, 3-(2′,4′-Dimethyl-[4,5′]bithiazolyl-2-ylamino)-4-isopropoxy-benzenesulfonamide.HBr], under setting [1], the “Day 26 Δ mm (vs. group 1)” value is recorded as 3.67 mm; the “Ankle thickness, Day 18” value was found to be 11.79 mm; the “% Inh (disease associated increase in ankle thickness)” value was 27%; the “Ankle thickness, Day 26” value is on record as 10.93 mm. Moreover, under “5 mg/kg Day 18-26”, the “Clinical Scores, Δ Day 18 vs. day 26” value is −1.20; the “Clinical Scores (0-8), Day 18” value turned out to be 8.00; the “Clinical Scores (0-8), Day 26” value was 6.80. Under setting [2], the “Day 26 Δ mm (vs. group 1)” value worked out at 3.15 mm; the “Ankle thickness, Day 18” value amounted to 11.76 mm; the “% Inh (disease associated increase in ankle thickness)” value came out at 37%; the “Ankle thickness, Day 26” value amounted to 10.42 mm. For the setting “20 mg/kg Day 18-26”, the “Clinical Scores, Δ Day 18 vs. day 26” value is reported as −2.80; the “Clinical Scores (0-8), Day 18” value is given as 8.00; the “Clinical Scores (0-8), Day 26” value was 5.20. Further, under setting [3], the “Day 26 Δ mm (vs. group 1)” value is given as 2.73 mm; the “Ankle thickness, Day 18” value is 11.68 mm; the “% Inh (disease associated increase in ankle thickness)” value was determined as 46%; the “Ankle thickness, Day 26” value was 9.99 mm. Further, for the setting “50 mg/kg Day 18-26”, the “Clinical Scores, Δ Day 18 vs. day 26” value is −3.40; the “Clinical Scores (0-8), Day 18” value came to 7.80; the “Clinical Scores (0-8), Day 26” value worked out at 4.40. For the same compound, under “5, 20, 50 mg/kg BID, Day 18-26”, the “effect on ankle thickness measurements” value was “dose-dependent decrease in ankle thickness measurements” and the “effect on clinical score measurements” value was “dose dependent decrease in clinical score measurements”.
